# Experimental data from ChEMBL document CHEMBL1201862, “PubChem BioAssay data set” (2004).
# Activity calls are given as the source filed them.
# Legend:
# [1] = viability loss in Vero cells – cytotoxicity control for Vif-APOBEC3G degradation inhibitor project, dose response (AID 1117358); format: functional; conditions: Vero
# [2] = inhibition of ADAM10 peptide cleavage – biochemical, FRET peptide substrate, recombinant human ADAM10, selectivity assay for ADAM17 exosite inhibitor project, dose response (AID 743259);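 note: ADAM10 enzyme cleaving a FRET peptide substrate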
# [3] = biological target: Disintegrin and metalloproteinase domain-containing protein 17 (Homo sapiens, UniProt P78536); test: exosite inhibitors of ADAM17, dose response, biochemical (AID 743260)
# Disintegrin and metalloproteinase domain-containing protein 17, sequence (P78536 whole entry, the tested form may be a part): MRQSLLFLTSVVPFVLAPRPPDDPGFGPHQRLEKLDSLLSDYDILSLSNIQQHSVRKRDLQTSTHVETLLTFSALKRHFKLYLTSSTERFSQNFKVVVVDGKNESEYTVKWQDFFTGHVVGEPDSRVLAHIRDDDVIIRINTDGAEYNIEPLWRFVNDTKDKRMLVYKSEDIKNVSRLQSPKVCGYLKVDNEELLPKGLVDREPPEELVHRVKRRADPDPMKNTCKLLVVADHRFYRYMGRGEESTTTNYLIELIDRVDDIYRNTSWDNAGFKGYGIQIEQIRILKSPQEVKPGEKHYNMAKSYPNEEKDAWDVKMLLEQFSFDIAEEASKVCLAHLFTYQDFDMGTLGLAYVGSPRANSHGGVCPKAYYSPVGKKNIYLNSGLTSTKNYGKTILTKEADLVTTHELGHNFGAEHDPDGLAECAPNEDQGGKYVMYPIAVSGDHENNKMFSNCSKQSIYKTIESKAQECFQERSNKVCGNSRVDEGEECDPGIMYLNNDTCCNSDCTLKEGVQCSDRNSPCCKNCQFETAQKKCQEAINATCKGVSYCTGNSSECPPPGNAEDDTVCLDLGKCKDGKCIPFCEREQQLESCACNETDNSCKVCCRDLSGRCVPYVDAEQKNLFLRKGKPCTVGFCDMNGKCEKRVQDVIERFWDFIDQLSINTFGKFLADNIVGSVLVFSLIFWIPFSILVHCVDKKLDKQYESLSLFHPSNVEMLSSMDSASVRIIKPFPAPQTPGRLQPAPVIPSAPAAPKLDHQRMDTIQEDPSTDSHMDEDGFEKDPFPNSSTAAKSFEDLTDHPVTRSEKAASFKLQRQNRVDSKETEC
# Galanin receptor type 3 = Galanin receptor type 3 (Homo sapiens, UniProt O60755); test: Fluorescence-based cell-based primary high throughput dose response assay to identify antagonists of the Galanin Receptor 3 (GalR3).; format: functional
# Galanin receptor type 3, sequence (O60755 whole entry): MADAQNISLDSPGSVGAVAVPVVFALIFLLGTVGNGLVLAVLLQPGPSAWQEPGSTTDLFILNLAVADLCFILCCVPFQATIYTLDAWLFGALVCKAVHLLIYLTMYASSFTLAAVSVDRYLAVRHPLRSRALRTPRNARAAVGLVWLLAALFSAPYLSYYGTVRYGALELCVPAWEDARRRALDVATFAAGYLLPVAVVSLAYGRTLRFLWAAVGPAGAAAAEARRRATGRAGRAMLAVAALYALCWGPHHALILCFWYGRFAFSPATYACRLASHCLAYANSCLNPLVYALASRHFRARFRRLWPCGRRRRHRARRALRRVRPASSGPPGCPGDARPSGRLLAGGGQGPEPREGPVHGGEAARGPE
# cells = format: functional, cell-based; conditions: HEK-CNG
# [4] = Late stage assay provider results from the probe development effort to identify inhibitors of the Plasmodium falciparum M17 Leucine Aminopeptidase (M17LAP): radiolabel-based cell-based dose response assay to identify compounds that inhibit P. falciparum growth in RBCs Set 2.; format: functional
# [5] = P. falciparum Dd2 growth inhibitors, dose response, SYBR Green, cherry-picked samples (AID 1159567); format: functional, cell-based
# [6] = toxicity to human hepatoma HepG2 cells – cell-based, cherry-picked samples, cytotoxicity control, dose response (AID 1159577); format: functional
# Paired box protein Pax-8 = Paired box protein Pax-8 (Homo sapiens, UniProt Q06710); test: PAX8 transcriptional activity inhibition in RMG-I – RMG-I cells, luciferase, cherry-pick, dose response (AID 687027); format: functional, cell-based;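 note: luciferase reporter driven by Pax8 target thyroperoxidase promoter measured by SteadyGlo luminescence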
# Paired box protein Pax-8, sequence (Q06710 whole entry): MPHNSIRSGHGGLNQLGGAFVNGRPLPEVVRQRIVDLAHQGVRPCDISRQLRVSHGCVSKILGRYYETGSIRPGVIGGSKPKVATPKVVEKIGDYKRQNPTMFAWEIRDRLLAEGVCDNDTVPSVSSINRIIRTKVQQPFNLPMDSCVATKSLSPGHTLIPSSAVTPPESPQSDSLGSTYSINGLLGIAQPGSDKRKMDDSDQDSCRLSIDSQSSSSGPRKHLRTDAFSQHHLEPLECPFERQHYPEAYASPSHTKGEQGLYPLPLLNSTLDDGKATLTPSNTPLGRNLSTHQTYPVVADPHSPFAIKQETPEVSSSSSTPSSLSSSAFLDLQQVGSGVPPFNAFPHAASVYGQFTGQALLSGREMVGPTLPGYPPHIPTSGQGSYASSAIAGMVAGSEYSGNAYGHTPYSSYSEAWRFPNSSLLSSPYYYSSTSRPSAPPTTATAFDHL
# [7] = OVCAR8 cell viability loss – plate reader, dry powder samples, PAX8 project, dose response (AID 743197); format: functional, cell-based; conditions: OVCAR-8
# [8] = T. cruzi growth inhibition in host cells, dose response, cell-based, plate reader, dry powder, set 2 (AID 652275); format: functional
# [9] = OVCAR-3 cell viability loss – plate reader, dry powder samples, PAX8 inhibitor project, dose response (AID 743044); format: functional, cell-based
# [10] = biological target: T1, Oxysterols receptor LXR-beta (Homo sapiens, UniProt P55055); format: functional, cell-based;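 note: agonist activity at LXR measured by a cell-based luminescence readout across a dose range, run as a counterscreen for daf-12 agonists; HEK293 cells with Gal4-LXR fusion and GAL4-driven luciferase reporter; potency for activation of Gal4-LXR reporter so compounds are agonists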
# T1 sequence (P55055 whole entry): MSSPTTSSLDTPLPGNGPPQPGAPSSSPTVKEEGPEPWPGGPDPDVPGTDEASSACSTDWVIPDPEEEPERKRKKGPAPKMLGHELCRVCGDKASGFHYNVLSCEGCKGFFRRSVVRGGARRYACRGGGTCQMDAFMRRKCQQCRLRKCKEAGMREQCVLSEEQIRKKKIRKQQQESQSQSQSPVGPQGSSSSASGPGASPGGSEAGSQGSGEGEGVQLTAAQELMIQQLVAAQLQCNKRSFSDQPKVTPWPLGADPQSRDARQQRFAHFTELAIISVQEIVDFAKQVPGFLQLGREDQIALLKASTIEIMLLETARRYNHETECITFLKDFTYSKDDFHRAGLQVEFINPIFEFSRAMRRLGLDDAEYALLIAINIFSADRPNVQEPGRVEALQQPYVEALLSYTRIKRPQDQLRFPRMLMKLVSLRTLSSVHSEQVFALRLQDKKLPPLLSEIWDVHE
# [11] = Single fluorophore orthopox expression reporter, late gene expression Measured in Cell-Based and Microorganism Combination System Using Plate Reader - 2142-08_Inhibitor_Dose_DryPowder_Activity.; format: functional
# [12] = lung carcinoma cell viability loss – CellTiter-Glo luminescence, dry powder, set 17, dose response (AID 1117284); format: functional, cell-based; conditions: A549
# [13] = inhibitors of orthopox intermediate gene expression, dose response, cell-based, single fluorophore reporter, dry powder (AID 1117271); format: functional
# [14] = growth inhibition of PfATP4-mutant resistant parasites – NITD609-resistant line, SYBR Green, dry powder, dose response (AID 1159571); format: functional, cell-based;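 note: parasites synchronized at ring stage by sorbitol before testing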
# [15] = Dd2 malaria parasite growth inhibition potency – SYBR Green, dry powder samples, dose response (AID 1159566); format: functional, cell-based;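 note: potency for growth inhibition with lower SYBR green DNA signal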
# [16] = Plasmodium falciparum Dd2 Sybr green parasite growth Measured in Cell-Based and Microorganism Combination System Using Plate Reader - 2153-01_Inhibitor_Dose_DryPowder_Activity_Set3.; format: functional
# [17] = growth inhibition of yeast DHODH-expressing 3D7 parasites – SYBR Green, dry powder samples, dose response (AID 1159570); format: functional, cell-based;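 note: parasite growth measured after 72 hours of compound exposure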
# H9c2 = test: cells; format: functional, cell-based; conditions: Rattus norvegicus, H9c2, Myocardium;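 note: confirmatory concentration-response retest of ultra-high-throughput screening hits for modulation of myocardial damage; cell death induced by hydrogen peroxide oxidative stress; compound pretreatment for 60 min then peroxide exposure for 2 h; potency is for protecting the cells against peroxide damage rather than for killing them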
# [18] = biological target: T2, Long-chain-fatty-acid--AMP ligase FadD28 (Mycobacterium tuberculosis, UniProt P9WQ59); test: Fluorescence polarization aasay to screen for inhibitors that compete for the binding of FadD28 to a bisubstrate Measured in Biochemical System Using Plate Reader - 2147-01_Inhibitor_Dose_CherryPick_Activity.; format: functional, Mycobacterium tuberculosis H37Rv
# T2 sequence (P9WQ59 whole entry): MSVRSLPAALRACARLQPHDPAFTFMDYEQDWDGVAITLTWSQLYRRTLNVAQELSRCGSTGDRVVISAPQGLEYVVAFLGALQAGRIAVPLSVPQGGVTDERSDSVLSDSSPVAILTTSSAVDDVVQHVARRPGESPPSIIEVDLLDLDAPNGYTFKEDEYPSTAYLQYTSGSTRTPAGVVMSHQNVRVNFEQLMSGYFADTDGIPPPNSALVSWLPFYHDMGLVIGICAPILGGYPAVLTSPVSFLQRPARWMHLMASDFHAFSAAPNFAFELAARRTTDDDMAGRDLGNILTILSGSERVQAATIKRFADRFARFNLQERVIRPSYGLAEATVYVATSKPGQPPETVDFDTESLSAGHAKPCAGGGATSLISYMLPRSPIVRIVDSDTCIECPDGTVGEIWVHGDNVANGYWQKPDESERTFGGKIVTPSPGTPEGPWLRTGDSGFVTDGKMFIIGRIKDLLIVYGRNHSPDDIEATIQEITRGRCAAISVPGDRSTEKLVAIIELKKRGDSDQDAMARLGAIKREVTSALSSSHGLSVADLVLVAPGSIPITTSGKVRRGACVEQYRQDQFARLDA
# [19] = HGIII-sPLA2 enzyme inhibition potency – biochemical, QFRET, IC50, dose response (AID 743457);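 note: green fluorescence rise as the enzyme cleaves BODIPY PC-A2 in liposomes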
# [20] = loss of viability in HepG2 cells – cell-based, CellTiter-Glo, cherry-picked, cytotoxicity control for Shn3 inhibitor project, dose response (AID 624134); format: functional
# [21] = non-specific 3'UTR reporter inhibition in Clone20-Shn3RL – cell-based, Renilla luciferase, cherry-picked, counter-screen for Shn3 inhibitor project, dose response (AID 624133); format: functional
# [22] = reduction of Shn3 3'UTR-driven luciferase in osteoblasts – cell-based, Clone20 osteoblasts, firefly luciferase, cherry-picked, dose response (AID 624132); format: functional;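 note: firefly luciferase luminescence from reporter carrying the Shn3 3'UTR in osteoblasts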
# [23] = biological target: T3, Methionyl-tRNA synthetase, putative (Trypanosoma brucei brucei, UniProt Q38C91); format: functional, Trypanosoma brucei brucei strain 927/4 GUTat10.1
# T3 sequence (Q38C91 whole entry): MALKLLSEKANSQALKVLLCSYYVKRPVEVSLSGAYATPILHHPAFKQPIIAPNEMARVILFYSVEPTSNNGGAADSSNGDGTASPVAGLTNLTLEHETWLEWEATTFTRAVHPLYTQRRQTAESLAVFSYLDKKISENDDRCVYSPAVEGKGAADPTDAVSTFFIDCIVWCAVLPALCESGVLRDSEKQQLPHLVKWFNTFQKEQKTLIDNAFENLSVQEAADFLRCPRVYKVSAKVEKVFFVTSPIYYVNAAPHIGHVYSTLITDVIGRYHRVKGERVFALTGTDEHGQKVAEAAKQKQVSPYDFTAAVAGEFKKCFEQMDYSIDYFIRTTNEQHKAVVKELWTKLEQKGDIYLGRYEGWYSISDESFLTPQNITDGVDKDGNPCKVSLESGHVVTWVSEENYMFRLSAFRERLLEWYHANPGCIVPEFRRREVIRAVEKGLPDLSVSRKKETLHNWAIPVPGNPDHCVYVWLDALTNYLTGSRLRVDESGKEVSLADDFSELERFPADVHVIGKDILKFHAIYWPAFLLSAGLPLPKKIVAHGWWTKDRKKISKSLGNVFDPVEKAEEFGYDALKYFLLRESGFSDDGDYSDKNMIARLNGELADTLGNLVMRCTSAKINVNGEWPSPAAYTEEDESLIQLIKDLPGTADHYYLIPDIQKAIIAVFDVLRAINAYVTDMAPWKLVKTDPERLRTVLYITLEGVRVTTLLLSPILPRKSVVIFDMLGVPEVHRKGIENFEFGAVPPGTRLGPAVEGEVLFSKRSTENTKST
# [24] = Counterscreen for inhibitors of Trypanosoma brucei methionyl tRNA synthetase (MetRS): Luminescence-based cell-based high throughput dose response assay to identify compounds that are cytotoxic to Jurkat human T lymphocyte cells.; format: functional
# [25] = biological target: T3, Methionyl-tRNA synthetase, putative; format: functional, Trypanosoma brucei brucei strain 927/4 GUTat10.1; remark: listed apart in the source
# Protein Tat = Protein Tat (Human immunodeficiency virus type 1 group M subtype B (isolate HXB2)(HIV-1), UniProt P04608); format: functional;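 note: tat binding to TAR RNA read out by fluorescence polarization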
# Protein Tat, sequence (P04608 whole entry): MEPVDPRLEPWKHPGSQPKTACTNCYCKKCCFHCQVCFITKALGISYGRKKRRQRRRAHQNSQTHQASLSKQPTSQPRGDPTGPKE
# Large T antigen = Large T antigen (Simian virus 40, UniProt P03070); format: functional, Betapolyomavirus macacae;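 note: Confirmatory-stage PubChem screen for compounds that inhibit SV40 T antigen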
# Large T antigen, sequence (P03070 whole entry): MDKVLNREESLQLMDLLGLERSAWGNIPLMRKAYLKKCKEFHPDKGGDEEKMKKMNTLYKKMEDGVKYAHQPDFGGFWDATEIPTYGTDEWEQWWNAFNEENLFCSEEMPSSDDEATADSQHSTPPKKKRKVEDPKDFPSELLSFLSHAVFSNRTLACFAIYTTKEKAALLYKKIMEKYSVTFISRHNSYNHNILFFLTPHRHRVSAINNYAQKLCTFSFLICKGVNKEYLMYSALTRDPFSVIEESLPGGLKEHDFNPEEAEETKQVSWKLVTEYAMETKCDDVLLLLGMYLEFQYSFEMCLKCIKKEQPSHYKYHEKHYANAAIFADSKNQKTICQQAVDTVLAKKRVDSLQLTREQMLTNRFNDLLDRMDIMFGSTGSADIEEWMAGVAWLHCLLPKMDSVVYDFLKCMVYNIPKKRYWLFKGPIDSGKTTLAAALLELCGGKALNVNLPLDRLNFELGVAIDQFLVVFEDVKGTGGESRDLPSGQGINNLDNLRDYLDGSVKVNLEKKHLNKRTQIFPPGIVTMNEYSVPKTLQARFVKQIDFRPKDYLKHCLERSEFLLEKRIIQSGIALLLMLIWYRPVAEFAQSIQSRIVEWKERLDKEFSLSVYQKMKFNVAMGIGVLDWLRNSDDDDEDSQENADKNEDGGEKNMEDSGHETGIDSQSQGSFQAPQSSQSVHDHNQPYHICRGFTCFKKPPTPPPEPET
# [26] = toxicity to human HepG2 hepatoma cells – cell-based, plate reader, dry powder samples, cytotoxicity control, dose response (AID 1159569); format: functional;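 note: inhibitor potency with signal falling toward the positive control level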
compound,measurement,setting,value
N#Cc1nc(Cc2cccc3ccccc23)oc1NCc1ccc(F)cc1,CC50,[1],> 40 µM (active)
COc1cccc(CN2C(=O)[C@@H]3Cc4c([nH]c5ccccc45)C(C)(C)N3C2=O)c1,IC50,[2],> 69.4 µM (inactive)
same,IC50,[3],> 69.4 µM (inactive)
CNC(=O)NC(=O)CSc1nnc(-c2ccc(F)cc2)n1CC1CCCO1 (stereo not given),IC50,Galanin receptor type 3,> 29.9 µM (inactive)
same,EC50,cells,> 29.9 µM (inactive)
CCCCOc1ccc(CNc2c(N(C)O)c(=O)c2=O)cc1,IC50,[4],19 µM (inactive)
CC(C)(C)OC(=O)N1CCCC(C(=O)Nc2cccc(C(=O)NCCCCc3ccccc3)c2)C1 (stereo not given),IC50,[2],> 69.5 µM (inactive)
same,IC50,[3],> 69.5 µM (inactive)
C[C@H](CO)N1C[C@H](C)[C@H](CN(C)Cc2ccc(Oc3ccccc3)cc2)Oc2ccc(NC(=O)Nc3ccc(C(F)(F)F)cc3)cc2C1=O,AC50,[5],9.62 µM (active)
same,AC50,[6],7.87 µM (active)
COCCNC(=O)C[C@@H]1C[C@H]2c3cc(NC(=O)Nc4ccc(C(F)(F)F)cc4)ccc3O[C@H]2[C@H](CO)O1,AC50,Paired box protein Pax-8,26.6 µM (active)
same,AC50,[7],> 70 µM (inactive)
CC(C)N1C[C@H](C)[C@@H](CN(C)Cc2ccc(Cl)c(Cl)c2)Oc2c(cccc2-c2cn(-c3ccncc3)nn2)C1=O,AC50,[8],0.00149 µM (active)
Cc1ccc(S(=O)(=O)Nc2ccc3c(c2)C(=O)N([C@H](C)CO)C[C@H](C)[C@@H](CN(C)S(=O)(=O)c2cccs2)OCCCC[C@H](C)O3)cc1,AC50,[9],20.5 µM (active)
same,AC50,Paired box protein Pax-8,4.23 µM (active)
same,AC50,[7],> 70 µM (inactive)
Cc1cccc(Nc2[nH]nc(C)c2[N+](=O)[O-])c1,EC50,[10],> 67.5 µM (inactive)
C[C@@H](O)C#Cc1ccc2c(c1)O[C@@H](CN(C)Cc1ccc(-c3ccc(Cl)cc3)cc1)[C@@H](C)CN([C@@H](C)CO)S2(=O)=O,AC50,[11],1.26 µM (active)
same,AC50,[12],33.4 µM (active)
same,AC50,[13],1.29 µM (active)
C/C=C/c1ccc([C@H]2[C@@H](C#N)N(C(=O)NC3CCCC3)[C@@H]2CO)cc1,AC50,[14],0.626 µM (active)
same,AC50,[5],1.02 µM (active)
same,AC50,[15],0.4 µM (active)
same,AC50,[16],0.719 µM (active)
same,AC50,[17],15.4 µM (active)
CCOc1ccc(CC(=O)NO)cc1,IC50,[4],7.2 µM (active)
Cc1ccc2nc(-c3ccccn3)oc2c1,EC50,[10],> 67.6 µM (inactive)
CCOC(=O)N1CCN(S(=O)(=O)c2ccc(C(=O)NNc3nc4c(C)cccc4s3)cc2)CC1,IC50,H9c2,14.2 µM (active)
same,AC50,[18],22.1 µM (active)
same,IC50,[19],25.9 µM (inactive)
COc1ccc(-c2coc3c(C(=O)NCc4ccc(OC)c(OC)c4)cccc23)c(C)c1,AC50,[20],1.77 µM (active)
same,IC50,Galanin receptor type 3,0.358 µM (active)
same,EC50,cells,> 29.9 µM (inactive)
same,AC50,[21],1.4 µM (active)
same,AC50,[22],0.722 µM (active)
C[C@@H]1CN([C@@H](C)CO)C(=O)c2cccc(NC(=O)Nc3cccc4ccccc34)c2O[C@@H]1CN(C)Cc1ccc(C(=O)Nc2ccccc2N)cc1,AC50,[5],< 0.3 µM (active)
same,AC50,[6],12.1 µM (active)
CCc1ccc(/C=C(/C#N)C(N)=S)cc1,IC50,[19],> 122 µM (inactive)
COc1ccc(CNC(=O)CSc2n[nH]c3c4ccccc4nc-3n2)cc1,IC50,[23],1.54 µM (active)
same,IC50,[24],83.3 µM (inactive)
same,IC50,[25],4.39 µM (active)
O=C(CN1CCN(S(=O)(=O)c2ccc(F)cc2)CC1)c1ccc(O)c(O)c1,IC50,Protein Tat,> 100 µM (active)
same,IC50,Large T antigen,6.55 µM (active)
O=C(CN1CCN(S(=O)(=O)c2ccc(Cl)s2)CC1)NCc1ccc(Cl)cc1,CC50,[1],15.1 µM (active)
CO[C@@H]1CN(C)C(=O)c2ccc(NC(=O)C3CC3)cc2OC[C@@H](C)N(Cc2cccc(F)c2)C[C@H]1C,AC50,[14],3.64 µM (active)
same,AC50,[5],2.98 µM (active)
same,AC50,[15],0.664 µM (active)
same,AC50,[16],4.29 µM (active)
same,AC50,[17],6.86 µM (active)
same,AC50,[26],> 100 µM (inactive)
